# Tested on: G. duodenalis BRIS/91/HEPU/1279
# Experiment: Primary Giardia screen at 10 µM (live-cell imaging, automated counting)
# Format: cell-based, Giardia duodenalis
# Settings: Giardia duodenalis, 24 h, first singlicate assay, read-out: % Inhibition n=1 24h
# Outline: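 Singlicate, 10 μM final, 0.2% DMSO; sealed chambers, 3% O2/5% CO2/N2. Counts by live-cell imaging at 24 h and 48 h. % growth vs vehicle, media background subtracted; Z' per plate.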
row,SMILES,inhibition at 10 µM [%]
1,"O=C(Nc1nc(-c2ccco2)c(-c2ccco2)s1)c1ccccc1 [SN00769776, O=C(Nc1sc(c2ccco2)c(n1)c1ccco1)c1ccccc1]",35.4
2,"COc1cc(OC)c(C2=CCN(C(=O)c3ccc(C)s3)CC2)c(OC)c1 [SN00769982, COc1cc(OC)c(C2=CCN(CC2)C(=O)c2ccc(C)s2)c(OC)c1]",46.2

# Same assay, conditions: Giardia duodenalis, 24 h, re-assessment, read-out: % Inhibition n=2 24h
row,SMILES,inhibition at 10 µM [%]
1,"O=C(Nc1nc(-c2ccco2)c(-c2ccco2)s1)c1ccccc1 [SN00769776, O=C(Nc1sc(c2ccco2)c(n1)c1ccco1)c1ccccc1]",19
2,"COc1cc(OC)c(C2=CCN(C(=O)c3ccc(C)s3)CC2)c(OC)c1 [SN00769982, COc1cc(OC)c(C2=CCN(CC2)C(=O)c2ccc(C)s2)c(OC)c1]",0

# Same assay, conditions: Giardia duodenalis, 24 h, read-out: Average % Inhibition 24h
row,SMILES,inhibition at 10 µM [%]
1,"O=C(Nc1nc(-c2ccco2)c(-c2ccco2)s1)c1ccccc1 [SN00769776, O=C(Nc1sc(c2ccco2)c(n1)c1ccco1)c1ccccc1]",27.2
2,"COc1cc(OC)c(C2=CCN(C(=O)c3ccc(C)s3)CC2)c(OC)c1 [SN00769982, COc1cc(OC)c(C2=CCN(CC2)C(=O)c2ccc(C)s2)c(OC)c1]",23.1

# Same assay, conditions: Giardia duodenalis, 48 h, first singlicate assay, read-out: % Inhibition n=1 48h
row,SMILES,inhibition at 10 µM [%]
1,"O=C(Nc1nc(-c2ccco2)c(-c2ccco2)s1)c1ccccc1 [SN00769776, O=C(Nc1sc(c2ccco2)c(n1)c1ccco1)c1ccccc1]",77.6
2,"COc1cc(OC)c(C2=CCN(C(=O)c3ccc(C)s3)CC2)c(OC)c1 [SN00769982, COc1cc(OC)c(C2=CCN(CC2)C(=O)c2ccc(C)s2)c(OC)c1]",78.1
3,Cc1cc(-c2cc(C(=O)Nc3c(C)n(C)n(-c4ccccc4)c3=O)c3cnn(C(C)C)c3n2)c(C)o1 [SN00776477],0
4,CCOc1ccc(C(=O)Nc2ccc3c(c2)N(C(C)C)C(=O)c2ccccc2O3)cc1 [SN00797660],33.8

# Same assay, conditions: Giardia duodenalis, 48 h, re-assessment, read-out: % Inhibition n=2 48h
row,SMILES,inhibition at 10 µM [%]
1,"O=C(Nc1nc(-c2ccco2)c(-c2ccco2)s1)c1ccccc1 [SN00769776, O=C(Nc1sc(c2ccco2)c(n1)c1ccco1)c1ccccc1]",64.8
2,"COc1cc(OC)c(C2=CCN(C(=O)c3ccc(C)s3)CC2)c(OC)c1 [SN00769982, COc1cc(OC)c(C2=CCN(CC2)C(=O)c2ccc(C)s2)c(OC)c1]",40.5

# Same assay, conditions: Giardia duodenalis, 48 h, read-out: Average % Inhibition 48h
row,SMILES,inhibition at 10 µM [%]
1,"O=C(Nc1nc(-c2ccco2)c(-c2ccco2)s1)c1ccccc1 [SN00769776, O=C(Nc1sc(c2ccco2)c(n1)c1ccco1)c1ccccc1]",71.2
2,"COc1cc(OC)c(C2=CCN(C(=O)c3ccc(C)s3)CC2)c(OC)c1 [SN00769982, COc1cc(OC)c(C2=CCN(CC2)C(=O)c2ccc(C)s2)c(OC)c1]",59.3

# Tested on: Neonatal foreskin fibroblast (NFF) cells
# Experiment: Mammalian cell cytotoxicity assay (sulforhodamine B)
# Format: cell-based, human
# Settings: Homo sapiens, NFF, mean ± SD; read-out: IC50 NFF
# Description: The selectivity of compounds of interest was assessed against NFF cells. Assays were performed using sulforhodamine B and included media only, negative (no compound, no DMSO), and vehicle (DMSO) controls as previously described. A chloroquine control plate was included in each assay. […] Repurchased SN00797640 was tested in dose–response from 100 µM against NFF. Selectivity indices (SI) were calculated by dividing mammalian cell IC50 values by G. duodenalis BRIS/91/HEPU/1279 IC50 values.
row,SMILES,IC50 [µM]
1,CCc1ccc(C(=O)Nc2ccc3c(c2)Oc2ccccc2C(=O)N3C)cc1 [SN00797643],> 10
2,CN1C(=O)c2ccccc2Oc2cc(NC(=O)c3cc4ccccc4[nH]3)ccc21 [SN00797648],> 20

# Same assay, conditions: Homo sapiens, NFF; 20 µM; ±SD
row,SMILES,inhibition at 20 µM [%]
1,"O=C(Nc1nc(-c2ccco2)c(-c2ccco2)s1)c1ccccc1 [SN00769776, O=C(Nc1sc(c2ccco2)c(n1)c1ccco1)c1ccccc1]",24.8 ± 11.7
2,"COc1cc(OC)c(C2=CCN(C(=O)c3ccc(C)s3)CC2)c(OC)c1 [SN00769982, COc1cc(OC)c(C2=CCN(CC2)C(=O)c2ccc(C)s2)c(OC)c1]",-9.1 ± 3.8

# Same assay, conditions: NFF IC50 divided by G. duodenalis BRIS/91/HEPU/1279 IC50
row,SMILES,Selectivity
1,CCc1ccc(C(=O)Nc2ccc3c(c2)Oc2ccccc2C(=O)N3C)cc1 [SN00797643],>20
2,CN1C(=O)c2ccccc2Oc2cc(NC(=O)c3cc4ccccc4[nH]3)ccc21 [SN00797648],>11

# Tested on: G. duodenalis BRIS/91/HEPU/1279
# Experiment: Giardia dose response assay, assemblage B
# Format: cell-based, Giardia duodenalis
# Settings: BRIS/91/HEPU/1279; 48 h; mean ± SD; read-out: IC50 Giardia (48 h)
# Description: In these assays, compounds were serially diluted (8–12-point doubling dilutions in technical duplicate) in DMSO control media, with all test wells inoculated with parasites (1.5 × 10^4 parasites for BRIS/91/HEPU/1279 and BRIS/91/HEPU/1279m1, or 3 × 10^3 parasites for BRIS/87/HEPU/713). […] All plates were sealed in culture chambers and gassed with 3% O2, 5% CO2 in N2 and incubated at 37 °C for 48 h, with parasites imaged and enumerated at 24 and 48 h. Growth inhibition was calculated as a percentage relative to vehicle controls minus any background as described above and IC50 values were determined using log-linear interpolation as previously described. […] Statistical comparison of IC50 values when required were performed using Student’s t-test.
row,SMILES,IC50 [µM]
1,COc1ccc(C(=O)Nc2ccc3c(c2)Oc2ccccc2C(=O)N3C)cc1OC [SN00797646],> 8.6
2,CN1C(=O)c2ccccc2Oc2cc(NC(=O)c3cc4ccccc4[nH]3)ccc21 [SN00797648],1.7

# Same assay, conditions: Giardia duodenalis, 24 h, read-out: G. duodenalis IC50 24h, Table S2; 24 h; ±SD; max 10 µM
row,SMILES,IC50 [µM]
1,"O=C(Nc1nc(-c2ccco2)c(-c2ccco2)s1)c1ccccc1 [SN00769776, O=C(Nc1sc(c2ccco2)c(n1)c1ccco1)c1ccccc1]",> 10
2,"COc1cc(OC)c(C2=CCN(C(=O)c3ccc(C)s3)CC2)c(OC)c1 [SN00769982, COc1cc(OC)c(C2=CCN(CC2)C(=O)c2ccc(C)s2)c(OC)c1]",> 10

# Same assay, conditions: Giardia duodenalis, 48 h, BRIS/91/HEPU/1279; 48 h; mean ± SD; read-out: IC50 Giardia (48 h)
row,SMILES,IC50 [µM]
1,Cc1cc(-c2cc(C(=O)Nc3c(C)n(C)n(-c4ccccc4)c3=O)c3cnn(C(C)C)c3n2)c(C)o1 [SN00776477],> 10
2,Cc1ccc(NC(=O)c2oc3ccccc3c2NC(=O)c2ccccc2)cc1 [SN00785329],> 10
3,COc1ccc(C(=O)Nc2ccc3c(c2)Oc2ccccc2C(=O)N3C)c(OC)c1 [SN00797635],> 10
4,Cc1ccc(N2CC(C(=O)Nc3ccc4c(c3)Oc3ccccc3C(=O)N4C)CC2=O)cc1C (stereo not shown) [SN00797636],> 10
5,COc1cc(OC)cc(C(=O)Nc2ccc3c(c2)Oc2ccccc2C(=O)N3C)c1 [SN00797637],5
6,CCc1ccc(C(=O)Nc2ccc3c(c2)Oc2ccccc2C(=O)N3C)cc1 [SN00797643],0.47
7,COc1ccc(C(=O)Nc2ccc3c(c2)Oc2ccccc2C(=O)N3C)cc1OC [SN00797646],8.6
8,CN1C(=O)c2ccccc2Oc2cc(NC(=O)c3cc4ccccc4[nH]3)ccc21 [SN00797648],1.4
9,CCOc1ccc(C(=O)Nc2ccc3c(c2)N(C(C)C)C(=O)c2ccccc2O3)cc1 [SN00797660],> 10

# Same assay, conditions: Giardia duodenalis, 48 h, Table S2; 48 h; ±SD; max 10 µM; read-out: G. duodenalis IC50 48h
row,SMILES,IC50 [µM]
1,"O=C(Nc1nc(-c2ccco2)c(-c2ccco2)s1)c1ccccc1 [SN00769776, O=C(Nc1sc(c2ccco2)c(n1)c1ccco1)c1ccccc1]",> 10
2,"COc1cc(OC)c(C2=CCN(C(=O)c3ccc(C)s3)CC2)c(OC)c1 [SN00769982, COc1cc(OC)c(C2=CCN(CC2)C(=O)c2ccc(C)s2)c(OC)c1]",9.59

# Tested on: Escherichia coli (ATCC 25922)
# Experiment: Anti-bacterial activity assay
# Format: cell-based
# Settings: Escherichia coli, ATCC25922, 50 µM; read-out: Bacterial Inhibition E. coli
# Description: (§1) The activity of compounds against methicillin resistant Staphylococcus aureus (ATCC 43300), Escherichia coli (ATCC 25922), Acinetobacter baumannii (ATCC 19606) and Klebsiella pneumoniae (ATCC 700603) was assessed at 50 µM in duplicate as previously described. In brief, mid-log phase bacteria cultures were added to 384-well microtiter plate wells containing compound to final cell density of 5 × 10^5 CFU/mL in 50 µL. Plates were then covered and incubated at 37 °C for 18 h without shaking. Inhibition of bacterial growth was determined by measuring absorbance at 600 nm (Tecan M1000 Pro monochromator plate reader) and calculating percentage growth inhibition relative to the negative media and bacteria without inhibitors. Vancomycin hydrochloride (Sigma-Aldrich an affiliate of Merck KGaA, Darmstadt, Germany, #861987) and colistin sulfate (Sigma-Aldrich an affiliate of Merck KGaA, Darmstadt, Germany, C4461) were on each plate as positive controls for Gram-positive (S. aureus) and Gram-negative (E. coli, A. baumannii and K. pneumoniae) bacteria, respectively.
row,SMILES,inhibition at 50 µM [%]
1,"O=C(Nc1nc(-c2ccco2)c(-c2ccco2)s1)c1ccccc1 [SN00769776, O=C(Nc1sc(c2ccco2)c(n1)c1ccco1)c1ccccc1]",8.92
2,"COc1cc(OC)c(C2=CCN(C(=O)c3ccc(C)s3)CC2)c(OC)c1 [SN00769982, COc1cc(OC)c(C2=CCN(CC2)C(=O)c2ccc(C)s2)c(OC)c1]",6.08

# Tested on: methicillin resistant Staphylococcus aureus (ATCC 43300)
# Experiment: Anti-bacterial activity assay
# Format: cell-based
# Settings: Staphylococcus aureus, ATCC43300, 50 µM; read-out: Bacterial Inhibition S. aureus
# Description: as §1
row,SMILES,inhibition at 50 µM [%]
1,"O=C(Nc1nc(-c2ccco2)c(-c2ccco2)s1)c1ccccc1 [SN00769776, O=C(Nc1sc(c2ccco2)c(n1)c1ccco1)c1ccccc1]",6.45
2,"COc1cc(OC)c(C2=CCN(C(=O)c3ccc(C)s3)CC2)c(OC)c1 [SN00769982, COc1cc(OC)c(C2=CCN(CC2)C(=O)c2ccc(C)s2)c(OC)c1]",3.41

# Tested on: Acinetobacter baumannii (ATCC 19606)
# Experiment: Anti-bacterial activity assay
# Format: cell-based
# Settings: ATCC19606, 50 µM
# Description: as §1
row,SMILES,inhibition at 50 µM [%]
1,"O=C(Nc1nc(-c2ccco2)c(-c2ccco2)s1)c1ccccc1 [SN00769776, O=C(Nc1sc(c2ccco2)c(n1)c1ccco1)c1ccccc1]",23.4
2,"COc1cc(OC)c(C2=CCN(C(=O)c3ccc(C)s3)CC2)c(OC)c1 [SN00769982, COc1cc(OC)c(C2=CCN(CC2)C(=O)c2ccc(C)s2)c(OC)c1]",2.57

# Tested on: Klebsiella pneumoniae (ATCC 700603)
# Experiment: Anti-bacterial activity assay
# Format: cell-based
# Settings: ATCC700603, 50 µM, read-out: Bacterial Inhibition K. pneumoniae
# Description: as §1
row,SMILES,inhibition at 50 µM [%]
1,"O=C(Nc1nc(-c2ccco2)c(-c2ccco2)s1)c1ccccc1 [SN00769776, O=C(Nc1sc(c2ccco2)c(n1)c1ccco1)c1ccccc1]",32.1
2,"COc1cc(OC)c(C2=CCN(C(=O)c3ccc(C)s3)CC2)c(OC)c1 [SN00769982, COc1cc(OC)c(C2=CCN(CC2)C(=O)c2ccc(C)s2)c(OC)c1]",15.6
